Earlier results on 1 compound are cited in patent publication US9446052B2, “Composition for prevention of nausea or vomiting” (SAMYANG BIOPHARMACEUTICALS CORPORATION, priority 2010, dated 2016).

The conditions of the data set: pH 6-7.5.

With `Cc1nccn1CC1CCc2c(c3ccccc3n2C)C1=O` (stereo not shown) [ondansetron], the Solubility in water entry is on record as “not soluble”.
